Assay results published in ChEMBL document CHEMBL3507680, “University of Dundee, Gates Library screen for HepG2 cell viability”.

Assay: Human HepG2 cell viability assay in 384 well format
Assay type: toxicity, cell-based
Parameters: dose 125 nL, time 70.5 hour; cytotoxicity at 70.5 h: concentration not given beside the values
Conditions: HepG2 cells, read-out: Inhibition

CCc1ccc(CN(C)Cc2nc(COc3ccccc3)no2)nc1
cytotoxicity at 70.5 h: -7.21%

CCc1ccccc1OC1CN(C(=O)c2sccc2N)C1
cytotoxicity at 70.5 h: -3.46%

O=C(O)c1cc(-c2ccncc2F)cc(S(=O)(=O)N2CCCCCC2)c1
cytotoxicity at 70.5 h: -23.6%

CC(C)Oc1cccc(F)c1C(C(=O)O)N1CCCN(C)CC1 (configuration not stated)
cytotoxicity at 70.5 h: 26.8%

COCC1CCCCN1Cc1nc(-c2ccoc2)oc1C (configuration not stated)
cytotoxicity at 70.5 h: -1.54%

CN(C)Cc1cc(-c2nccn2CCc2cccnc2)ccc1O
cytotoxicity at 70.5 h: -5.02%

Cc1ccccc1C(=O)NC[C@@H]1CCN(C(=O)C2(O)CCCC2)C[C@H]1O
cytotoxicity at 70.5 h: -4.64%

CN(Cc1cc2cc(F)ccc2[nH]1)c1cc(C2CCCNC2)ncn1 (configuration not stated)
cytotoxicity at 70.5 h: -0.169%

Cc1ncsc1C(=O)N1CCCC(c2nccn2Cc2cscn2)C1 (configuration not stated)
cytotoxicity at 70.5 h: -5.99%

CC1CCCCN1CCN(C)C(=O)c1cc(CN2CCC(O)CC2)on1 (configuration not stated)
cytotoxicity at 70.5 h: -0.898%

Cc1cccc(C(C(=O)NCCn2cccc2)N(C)C)c1 (configuration not stated)
cytotoxicity at 70.5 h: -12.1%

CSc1ccccc1C(=O)C1CCCN(Cc2cc(C(C)C)[nH]n2)C1 (configuration not stated)
cytotoxicity at 70.5 h: -6.68%

OC[C@H]1CCN(Cc2ccc3ccccc3n2)C[C@@H]1O
cytotoxicity at 70.5 h: -4.84%

CNS(=O)(=O)c1ccc(CN2CCN(Cc3ncccc3C)CC2)cc1
cytotoxicity at 70.5 h: -15.3%

O=C(CCc1nc(Cl)n[nH]1)N1CCC2(CCCNC2=O)C1 (configuration not stated)
cytotoxicity at 70.5 h: 4.11%

Cc1cc(CN2CCCC2)cc(Oc2nc(C)cnc2C)c1
cytotoxicity at 70.5 h: -5.62%

CN1CCC2(CCN(S(=O)(=O)c3ccc(-c4cnco4)s3)CC2)C1
cytotoxicity at 70.5 h: -8.53%

COc1cc2[nH]c(=O)c(CN3CCCC(CO)C3)cc2c(OC)c1OC (configuration not stated)
cytotoxicity at 70.5 h: -13.1%

CCc1cnc(N)nc1N1CCCC2(CCOCC2)C1
cytotoxicity at 70.5 h: -3.13%

Cc1nonc1N1CCN(Cc2nc(CC3CC3)no2)CC1
cytotoxicity at 70.5 h: -2.56%

CCOc1ccc2[nH]c(=O)c(CN3CCC(n4cnnc4)CC3)cc2c1
cytotoxicity at 70.5 h: -4.91%

CC(C)c1cc(C2CCCN2Cc2nc(-c3ccco3)no2)no1 (configuration not stated)
cytotoxicity at 70.5 h: -2.57%

CCc1c(C)sc2ncnc(N3CC[C@@H](N4CCC(O)CC4)[C@H](O)C3)c12
cytotoxicity at 70.5 h: -10.6%

CC(=O)NCc1nc(CC(C)C)nn1-c1cccc(C)c1
cytotoxicity at 70.5 h: -2.35%

COCc1noc(Cn2c(=O)[nH]c3ccccc32)n1
cytotoxicity at 70.5 h: -10.2%

CO[C@H]1CN(C(=O)c2cc3ccccc3[nH]2)CC[C@H]1N
cytotoxicity at 70.5 h: 18.2%

CC(C)CN1CC2(CCN(C(=O)C3CSC(C)(C)C(=O)N3)CC2)CC1=O (configuration not stated)
cytotoxicity at 70.5 h: -1.86%

CC(=O)N1CCN(C(=O)c2cc(C(C)C)no2)[C@H]2CS(=O)(=O)C[C@H]21
cytotoxicity at 70.5 h: -3.64%

CSc1ncc(C(=O)N2CCC(O)(CN3CCOCC3)C(C)(C)C2)cn1 (configuration not stated)
cytotoxicity at 70.5 h: -0.923%

CCc1ncc(C(=O)N2CCC(O)(CN3CCOCC3)C(C)(C)C2)cn1 (configuration not stated)
cytotoxicity at 70.5 h: -0.715%

CCCc1nc(C(=O)N2CCN(C(=O)c3ccc(OC)cc3)CC2)cs1
cytotoxicity at 70.5 h: -5.88%

O=C(c1ccco1)N1CCN(Cc2nc(C3CC3)no2)CC1
cytotoxicity at 70.5 h: -5.91%

CN(CC(=O)N1CCC(OCc2cccnc2)CC1)c1ccccc1
cytotoxicity at 70.5 h: -17.1%

COc1ccccc1N1CCN(C(=O)CCCS(N)(=O)=O)C(C)C1 (configuration not stated)
cytotoxicity at 70.5 h: -5.3%

COc1ccc(N2CCC(N3CCOC(C(F)(F)F)C3)CC2)cc1 (configuration not stated)
cytotoxicity at 70.5 h: -7.02%

O=S(=O)(N1CCOCC1)N1CCCCC1CCn1cccn1 (configuration not stated)
cytotoxicity at 70.5 h: 3.71%

CC(C)[C@@H]1CN(C(=O)CN(C)Cc2ccc(F)cc2)C[C@H]1C(=O)O
cytotoxicity at 70.5 h: -1.04%

Cc1nn(C)c(C)c1CN(Cc1cccn1-c1cccnc1)C(C)C
cytotoxicity at 70.5 h: 11.8%

COc1ccc(Cn2c(Cc3c(C)n[nH]c3C)n[nH]c2=O)cc1
cytotoxicity at 70.5 h: -12.9%

CN(CCc1noc(C2CC2)n1)C(=O)CN1C(=O)COc2ccccc21
cytotoxicity at 70.5 h: -4.64%

CCCc1nc(C)c(CN2CC3(CCOC3)CCC2=O)s1 (configuration not stated)
cytotoxicity at 70.5 h: -8.32%

O=C(O)c1cccnc1CN(Cc1ccsc1)C1CC1
cytotoxicity at 70.5 h: -6.7%

CCN(CCOC)C(=O)c1cc(COc2ccc3c(c2)CCCC3)on1
cytotoxicity at 70.5 h: -3.35%

Cc1ccccc1C(CC(=O)NCC(N)=O)c1ccccc1 (configuration not stated)
cytotoxicity at 70.5 h: -5.12%

COCCC(=O)N1CCCC(CCC(=O)NCc2ccccc2F)C1 (configuration not stated)
cytotoxicity at 70.5 h: -6.55%

CCOC(=O)c1coc(N2CCC(C(C)N3CCCC3)CC2)n1 (configuration not stated)
cytotoxicity at 70.5 h: -1.58%

CCC[C@H]1CN(CCS(C)(=O)=O)C[C@@H]1NC(=O)c1cc(CC)on1
cytotoxicity at 70.5 h: -2.15%

CN(C)Cc1nnc(C2CCCN(c3cc(C(F)(F)F)ccn3)C2)n1C (configuration not stated)
cytotoxicity at 70.5 h: -11.1%

Cc1ccc(CN2CCN(C3CCCC3)CC2CCO)o1 (configuration not stated)
cytotoxicity at 70.5 h: 8.76%

CC1(C)CN(Cc2nnc(-c3cccnc3)o2)CC[C@]1(C)O
cytotoxicity at 70.5 h: 8.67%

CCC(C)(C)c1cc(-c2c(C)nn(CCO)c2C)c(C#N)c(N)n1
cytotoxicity at 70.5 h: 12.5%

CN(C(=O)CCc1cccs1)C1CCCN(C2Cc3ccccc3C2)C1 (configuration not stated)
cytotoxicity at 70.5 h: -1.24%

Cc1cnn(C(C)C2CC2)c1NC(=O)c1ncccc1O (configuration not stated)
cytotoxicity at 70.5 h: 9.8%

CCOC(=O)N1CCC(Nc2cc(CC)nc3c(C)c(C)nn23)CC1
cytotoxicity at 70.5 h: -4.43%

CNc1ncccc1C(=O)N1CCCC2(C1)C(=O)N(C)c1ccccc12 (configuration not stated)
cytotoxicity at 70.5 h: -7.64%

O=C(O)c1cccnc1CN1CCCCC1CCc1cccc(O)c1 (configuration not stated)
cytotoxicity at 70.5 h: 9.13%

COCCN(Cc1cccc(O)c1)Cc1ccccc1F
cytotoxicity at 70.5 h: 1.04%

Cc1nc(NC(=O)N(C)Cc2ccsc2)nn1C
cytotoxicity at 70.5 h: -7.49%

CCC1CN(C(=O)c2ccccc2C(C)=O)CCN1C(C)C (configuration not stated)
cytotoxicity at 70.5 h: -4.04%

CN(Cc1ccc(CCC(C)(C)O)cc1)Cc1cccc(O)c1
cytotoxicity at 70.5 h: -8.03%

COc1cc(N(C)CCC(O)c2ccccc2)ncn1 (configuration not stated)
cytotoxicity at 70.5 h: -3.53%

CCCNC(=O)C(C)Oc1ccccc1 (configuration not stated)
cytotoxicity at 70.5 h: -5.34%

Cc1cnc(C(=O)N[C@H]2CN(CCS(C)(=O)=O)C[C@@H]2C2CC2)cn1
cytotoxicity at 70.5 h: 12.4%

COc1ccc2c(c1)OCC(CNC(=O)CCc1c(C)n[nH]c1C)C2 (configuration not stated)
cytotoxicity at 70.5 h: -1.4%

C[C@@H]1CN(c2nc3c(cc2C(N)=O)CCC3)C[C@]1(C)O
cytotoxicity at 70.5 h: -15%

CN(C)CCC(Nc1nc(N)nc2c1CCNCC2)c1ccccc1 (configuration not stated)
cytotoxicity at 70.5 h: -8.45%

Cc1cc(C)nc(N2CCN(C(=O)c3ccc(C4CCCO4)s3)CC2)n1 (configuration not stated)
cytotoxicity at 70.5 h: -11.5%

Cc1nn(C)c(C)c1CCC(=O)N(C)Cc1ccc2nsnc2c1
cytotoxicity at 70.5 h: -4.18%

Cc1nn(C)c(C)c1-c1c(-c2ccccc2)ncn1[C@H](CO)C(=O)O
cytotoxicity at 70.5 h: -4.59%

CN(C)c1nc2c(c(N3CCC4(CCCNC4=O)C3)n1)CCCC2 (configuration not stated)
cytotoxicity at 70.5 h: 8.69%

CCS(=O)(=O)CCNc1nc(C2CCCC2)nc2c1cnn2C
cytotoxicity at 70.5 h: -6.16%

COCCCC1(C(=O)O)CCCN(Cc2cc3c(cc2C)OCCO3)C1 (configuration not stated)
cytotoxicity at 70.5 h: -8.65%

c1cc(-c2n[nH]c(CNc3nnc(C4CC4)o3)n2)ccn1
cytotoxicity at 70.5 h: 0.716%

O=C1CC[C@H]2CN(Cc3cccnc3)CC[C@H]2N1CCc1c[nH]cn1
cytotoxicity at 70.5 h: -1.83%

Cc1csc(N2CCCN(C3Cc4ccccc4C3)CC2)n1
cytotoxicity at 70.5 h: -15.6%

Cc1nc(C2CCNCC2)cc(N(C)Cc2cc3cc(F)ccc3[nH]2)n1
cytotoxicity at 70.5 h: -1.29%

COc1ncc(-c2cc(NCCN(C)C)nc3[nH]ccc23)c(OC)n1
cytotoxicity at 70.5 h: 15.3%

Cc1[nH]c2c(F)cccc2c1CC(=O)NCCCc1csc(N)n1
cytotoxicity at 70.5 h: 5.37%

CC(C)c1cc(C2CCN(Cc3cc(F)cc(F)c3)CC2)[nH]n1
cytotoxicity at 70.5 h: -1.12%

COCC(=O)N1C[C@H]2CNC[C@@]2(C(=O)NCc2snnc2C)C1
cytotoxicity at 70.5 h: -6.27%

CC(C)[C@H]1CN(Cc2ccccn2)C[C@@H]1NC(=O)CC1CCC1
cytotoxicity at 70.5 h: -3.45%

CC(C)(O)CCc1ccc(C(=O)N2CCN(CCS(C)(=O)=O)CC2)cc1
cytotoxicity at 70.5 h: 0.886%

COCC(=O)N1CC[C@]2(O)CCN(Cc3ccsc3)C[C@@H]2C1
cytotoxicity at 70.5 h: -7.01%

CCSCCNc1nc2c(s1)c(C)nn2C
cytotoxicity at 70.5 h: -14.5%

Cc1ccc2nc(CN(C)Cc3[nH]nc4c3CCC4)[nH]c2c1C
cytotoxicity at 70.5 h: 6.49%

Cc1cnc(N)nc1NCCSCc1[nH]cnc1C
cytotoxicity at 70.5 h: -1.94%

CN1CCC(Cc2noc(-c3cccc(Oc4ncccn4)c3)n2)CC1
cytotoxicity at 70.5 h: -2%

CCC1(CO)CCN(C(=O)c2cc(COc3ccccc3F)[nH]n2)CC1
cytotoxicity at 70.5 h: 15.1%

CN(CCO)Cc1nnc(C2CCN(C(=O)CN3CCCC3)CC2)n1C
cytotoxicity at 70.5 h: -0.947%

Nc1ncccc1CN1C[C@@H](C(=O)O)[C@H](c2cccc(F)c2)C1
cytotoxicity at 70.5 h: 1.75%

N#Cc1cccnc1N1CCN(S(=O)(=O)NCc2ccccc2)CC1
cytotoxicity at 70.5 h: -18.9%

Cc1ccc(-c2ccnc(NCC3(N(C)C)CCOCC3)n2)c(C)n1
cytotoxicity at 70.5 h: -4%

CN(C)CCN1CC2(CCCN(c3ncc(Cl)cc3F)C2)CCC1=O (configuration not stated)
cytotoxicity at 70.5 h: -5.68%

CCCN1CCCC2(CCN(Cc3cncn3C3CCCCC3)C2)C1=O (configuration not stated)
cytotoxicity at 70.5 h: -7.64%

Cc1ccc(NC2(C(=O)NCCCc3c(C)n[nH]c3C)CCCC2)cc1
cytotoxicity at 70.5 h: -5.19%

CC(=O)c1ccc(N2CCC3(CC2)CC(=O)N(C)C3)nc1
cytotoxicity at 70.5 h: 4.13%

Cc1nc(N)nc(C)c1CC(=O)NCc1ccc2nonc2c1
cytotoxicity at 70.5 h: -9.8%

Cc1ncsc1CCN(C)C(=O)CN1CCCCC1=O
cytotoxicity at 70.5 h: 12.5%

O=C(CCC(=O)N1CCC(OCc2cccnc2)CC1)c1ccccc1
cytotoxicity at 70.5 h: -1.13%

COc1ccc(C(=O)N2C[C@@H](CN3CCCCC3)[C@@H](CO)C2)cc1Cl
cytotoxicity at 70.5 h: -1.81%

CSc1ccc2cc(CN(C)CCO)c(=O)[nH]c2c1
cytotoxicity at 70.5 h: -16.3%

COc1cc(OC)cc(-c2cccc3c2OC(CN)C3)c1 (configuration not stated)
cytotoxicity at 70.5 h: 24.7%

O=C(c1ccccc1)N1CCN(CC2CCOc3ccccc3C2)CC1 (configuration not stated)
cytotoxicity at 70.5 h: -2.76%

CCC(c1nc(C(C)C)nn1-c1ccncc1C)n1cccn1 (configuration not stated)
cytotoxicity at 70.5 h: -9.34%

CN(C)c1ccc(C(=O)N2C[C@@H](CN3CCCCC3)[C@@H](CO)C2)cc1
cytotoxicity at 70.5 h: -4.9%

Cc1cccc(C(C(=O)NCc2csc(-c3ncccn3)n2)N(C)C)c1 (configuration not stated)
cytotoxicity at 70.5 h: -0.325%

O=C1OCCN1Cc1ncnn1Cc1c(F)cccc1Cl
cytotoxicity at 70.5 h: 11.9%

Cc1ncc(C(=O)N2CCCN(Cc3ccccc3F)CC2)c(O)n1
cytotoxicity at 70.5 h: -12.9%

Cc1ccc(OCC2CCCN(C(=O)CN3CCOCC3)C2)cc1 (configuration not stated)
cytotoxicity at 70.5 h: 2.89%

CNc1ncc(CN(C)C(=O)c2cccc(Cn3cccn3)c2)cn1
cytotoxicity at 70.5 h: -6.97%

COc1cc(N2CCC(c3nccn3Cc3cccnc3)CC2)ncn1
cytotoxicity at 70.5 h: -5.38%

Cc1ccc(-c2nccn2-c2ccc(OC3CCN(C)CC3)cc2)o1
cytotoxicity at 70.5 h: 17%
